Assay results: patent publication US8415369B2, “Spiroheterocyclic pyrrolidine dione derivatives useful as pesticides” (Syngenta Crop Protection LLC, priority 2007, dated 2013)

Key:
[1] = test system: African bean aphid (Aphis craccivora); assay: Example B21: insecticide seed treatment of sugarbeet seeds, reduction of aphids; assay type: in vivo; details: infested after 14 days, counted 7 days after infestation
Protocol: Insecticide Seed Treatment Sugarbeet seeds are treated with test compounds at various rates (mg a.i./seed). The seeds are sown into pots filled with soil. After placing the seeds on the soil surface they are further covered with soil. Before and during the bioassays, the plants are grown under optimal greenhouse conditions. After 14 days, the plants are infested with African bean aphid (Aphis craccivora) by placing one infested pea seedling containing approximately 150 aphids of a population of mixed developmental stages onto each plant. Seven days after infestation, the number of aphids is counted per plant. Each treatment group is replicated 10 times. Each replicate contains 1 plant. In this test, compounds listed in Tables A, B, C, D, E and F above show good activity.

[2] = test system: Myzus persicae (green peach aphid); assay: Example B19: comparison with state of the art, Myzus persicae, systemic/feeding activity, curative; assay type: in vivo; details: for Death rate (%) after 6 days (systemic action): pea seedling roots in test solution, curative
[3] = test system: Tetranychus urticae (two-spotted spider mite); assay: Example B20: comparison with state of the art, Tetranychus urticae, feeding/residual contact activity, preventive; assay type: in vivo; details: for Death rate (%) after 8 days: bean leaf discs, mixed population, preventive
From the text: Activity Against Tetranychus urticae (Two-Spotted Spider Mite)
(Mixed Population, Feeding/Residual Contact Activity, Preventive)
Bean leaf discs on agar in 24-well microtiter plates are sprayed with test solutions. […] 8 days later, discs are checked for egg mortality, larval mortality, and adult mortality.

[4] = test system: Thrips tabaci (onion thrips); assay: Example B18: comparison with state of the art, Thrips tabaci, feeding/residual contact activity, preventive; assay type: in vivo; details: for Death rate (%) after 6 days: sunflower leaf discs, mixed population, preventive
[5] = test system: Diabrotica balteata (corn root worm); assay: Example B17: comparison with state of the art, Diabrotica balteata, larvicide, growth regulation; assay type: in vivo; details: for Inhibition of growth (%) after 5 dsys: artificial diet MTP, L2 larvae
Protocol: After drying, the MTP's are infested with larvae (L2)(6-10 per well). After an incubation period of 5 days, samples are checked for growth regulation.

[6] = test system: Myzus persicae (green peach aphid); assay: Example B16: comparison with state of the art, Myzus persicae, feeding/residual contact activity, preventive; assay type: in vivo; details: for Death rate (%) after 6 days: sunflower leaf discs, mixed population, preventive

In the case of C=CCOC(=O)OC1=C(c2cc(C)ccc2C)C(=O)NC12CCN(OC)CC2 [Compound A5], the “Efficacy, % (reduction of aphids compared to untreated control plants)” value ([1]; 0.03 mg a.i./seed) is reported as 37%, the “Efficacy, % (reduction of aphids compared to untreated control plants)” value ([1]; 0.1 mg a.i./seed) is reported as 97% and the “Efficacy, % (reduction of aphids compared to untreated control plants)” value ([1]; 0.3 mg a.i./seed) is reported as 99%. The “Efficacy, % (reduction of aphids compared to untreated control plants)” value ([1]; 0.6 mg a.i./seed) was 100%.

In the case of CON1CCC2(CC1)NC(=O)C(c1cc(C)ccc1C)=C2OC(=O)C(C)(C)C [Compound A9], the “Death rate (%) after 6 days (systemic action)” value ([2]; 50 ppm) is reported as 50%, the “Death rate (%) after 6 days (systemic action)” value ([2]; 200 ppm) is reported as 80% and the “insecticidal action compared with the compound from the state of the art” value ([2]; vs compound I-1-b-20 of WO1998/05638, Table B19) is reported as “substantially better insecticidal action”. For the same molecule, the “Death rate (%) after 8 days” value ([3]; 12.5 ppm) was 50%, the “Death rate (%) after 8 days” value ([3]; 50 ppm) was 80% and the “Death rate (%) after 8 days” value ([3]; 200 ppm) was 80%. For the same molecule, the “insecticidal action compared with the compound of the state of the art at low application rates” value ([3]; low application rates (50 and 12.5 ppm), vs compound I-1-b-20 of WO1998/05638) was “far superior” and the “insecticidal action compared with the compound from the state of the art” value ([3]; vs compound I-1-b-20 of WO1998/05638, Table B20) was “substantially better insecticidal action”.

With CON1CCC2(CC1)NC(=O)C(c1cc(C)ccc1C)=C2O [Compound C1, 3-(2,5-dimethyl-phenyl)-4-hydroxy-8-methoxy-1,8-diaza-spiro[4.5]dec-3-en-2-one] the “Efficacy, % (reduction of aphids compared to untreated control plants)” value ([1]; 0.03 mg a.i./seed) was 65%, the “Efficacy, % (reduction of aphids compared to untreated control plants)” value ([1]; 0.1 mg a.i./seed) was 96% and the “Efficacy, % (reduction of aphids compared to untreated control plants)” value ([1]; 0.3 mg a.i./seed) was 99%. The “Efficacy, % (reduction of aphids compared to untreated control plants)” value ([1]; 0.6 mg a.i./seed) was 99%.

In the case of CON1CCC2(CC1)NC(=O)C(c1c(C)cc(C)cc1C)=C2O [Compound C2], the “Death rate (%) after 6 days” value ([4]; 12.5 ppm) is reported as 90%, the “Death rate (%) after 6 days” value ([4]; 50 ppm) is reported as 100% and the “Death rate (%) after 6 days” value ([4]; 200 ppm) is reported as 100%. For the same molecule, the “insecticidal action compared with the compound from the state of the art” value ([4]; vs compound Ia-32 of EP596298, Table B18) was “substantially better insecticidal action”.

In the case of CON1CCC2(CC1)NC(=O)C(c1cc(-c3ccc(Cl)cc3)ccc1C)=C2O [Compound C6], the “Inhibition of growth (%) after 5 dsys” value ([5]; 50 ppm) is reported as 50%, the “Inhibition of growth (%) after 5 dsys” value ([5]; 200 ppm) is reported as 75% and the “insecticidal action compared with the compound from the state of the art” value ([5]; vs compound 1-1-a-16 of WO1999/48869, Table B17) is reported as “substantially better insecticidal action”. For the same molecule, the “Death rate (%) after 6 days” value ([6]; 12.5 ppm) was 25%, the “Death rate (%) after 6 days” value ([6]; 50 ppm) was 90% and the “insecticidal action compared with the compound from the state of the art” value ([6]; vs compound 1-1-a-16 of WO1999/48869, Table B16) was “substantially better insecticidal action”.

CON1CCC2(CC1)NC(=O)C(c1cc(Br)c(F)cc1C)=C2O [Compound C19, 3-(5-Bromo-4-fluoro-2-methyl-phenyl)-4-hydroxy-8-methoxy-1,8-diaza-spiro[4.5]dec-3-en-2-one] showed a melting point of 229 to 230 °C.

In the case of COC1CCC2(CC1)NC(=O)C(c1cc(-c3ccc(Cl)cc3)ccc1C)=C2O (centres unmarked) [Compound I-1-a-16], the “Inhibition of growth (%) after 5 dsys” value ([5]; 50 ppm) is reported as 0%, the “Inhibition of growth (%) after 5 dsys” value ([5]; 200 ppm) is reported as 0% and the “Death rate (%) after 6 days” value ([6]; 12.5 ppm) is reported as 0%. For the same molecule, the “Death rate (%) after 6 days” value ([6]; 50 ppm) was 50%.

For CO[C@H]1CC[C@]2(CC1)NC(=O)C(c1cc(C)ccc1C)=C2OC(=O)C(C)(C)C [Compound I-1-b-20, reference compound], the “Death rate (%) after 6 days (systemic action)” value ([2]; 200 ppm) was 0%, the “Death rate (%) after 8 days” value ([3]; 12.5 ppm) was 0% and the “Death rate (%) after 8 days” value ([3]; 50 ppm) was 0%. The “Death rate (%) after 8 days” value ([3]; 200 ppm) was 50%.

With CO[C@H]1CC[C@]2(CC1)NC(=O)C(c1c(C)cc(C)cc1C)=C2O [Ia-32, reference compound] the “Death rate (%) after 6 days” value ([4]; 12.5 ppm) was 25%, the “Death rate (%) after 6 days” value ([4]; 50 ppm) was 25% and the “Death rate (%) after 6 days” value ([4]; 200 ppm) was 25%.
